Test results published in paper PMC3551932, “STK295900, a Dual Inhibitor of Topoisomerase 1 and 2, Induces G2 Arrest in the Absence of DNA Damage” (PLoS ONE, 2013).

How the values were obtained:
MCF7 cells = assay: Cell growth inhibition assay, MCF7; assay type: cell-based, human; conditions: Homo sapiens, MCF7, 96 h, growth up to 4 days
Excerpt: (§1) Human epitheloid cervical carcinoma HeLa cells, human breast adenocarcinoma MCF7 and MDA-MB-231cells, human hepatocellular carcinoma HepG2 cells, human colon adenocarcinoma HT-29 cells, and human colorectal carcinoma HCT-116 cells were purchased from ATCC® and maintained in DMEM medium. Human prostate carcinoma PC-3 cells (purchased from ATCC®), human gastric carcinoma SNU-484 and SNU-601(obtained from Korean Cell Line Bank (KCLB)), human leukemia K-562 and HL-60 cells (purchased from ATCC®), immortalized human prostate epithelial 267B1cells, and immortalized human embryonic lung fibroblast MRC5CV1 cells were maintained in RPMI 1640 medium whereas immortalized retinal pigment epithelial hTERT RPE-1 cells (purchased from ATCC®) were maintained in DMEM/F12 medium. All cell lines were cultured in media supplemented with 10% fetal bovine serum, 100 U/ml penicillin, and […] streptomycin at 37°C in a 5% CO2 incubator.
(§2) Cells were seeded at the appropriate amount (1–2×10^3 cells) in triplicate in 96-well plates for 24 h and then treated with various concentrations of STK295900. Cell growth was determined by using EZ-CyTox cell viability assay kit (Daeil Lab. Service, Seoul, Korea). Ten microliters of WST solution were added to the treated cells at 24, 48, 72, and 96 h. Cells were further incubated at 37°C for 2 h and the absorbance was measured at 450 nm.

MDA-MB-231 cells = assay: Cell growth inhibition assay, MDA-MB-231; assay type: cell-based; conditions: Homo sapiens, 96 h; Table 1; MDA-MB-231, breast adenocarcinoma; growth up to 4 days
Excerpt: as §1, §2

HepG2 cells = assay: Cell growth inhibition assay, HepG2; assay type: cell-based, human; conditions: Homo sapiens, HepG2, 96 h, growth up to 4 days
Excerpt: as §1, §2

PC-3 cells = assay: Cell growth inhibition assay, PC-3; assay type: cell-based; conditions: Homo sapiens, 96 h; Table 1; PC-3, prostate carcinoma; growth up to 4 days
Excerpt: as §1, §2

SNU-601 cells = assay: Cell growth inhibition assay, SNU-601; assay type: cell-based; conditions: Homo sapiens, 96 h; Table 1; SNU-601, gastric carcinoma; growth up to 4 days
Excerpt: as §1, §2

hTERT RPE-1 cells = assay: Cell growth inhibition assay, hTERT RPE-1; assay type: cell-based, human; conditions: Homo sapiens, hTERT-RPE1, 96 h; Table 2 comparison; hTERT RPE-1, non-cancer; growth up to 4 days
Excerpt: as §1, §2

HeLa cells [1] = assay: Flow cytometric analysis for cell cycle distribution; assay type: cell-based, human; conditions: 24 h, control around 25%
Experimental: For cell cycle analysis, HeLa cells were harvested following compound treatment for 24 h and stained with propidium iodide (PI) according to the instruction of Cycle Test Plus DNA Reagent kit from BD Biosciences (San Jose, CA). Flow cytometric analysis was performed using a FACSCalibur instrument (Becton Dickinson, San Jose, CA).
Figure 2 STK295900 induces G2 phase arrest in HeLa cells. (A) Flow cytometric analysis for cell cycle distribution. HeLa cells were treated with the indicated concentrations of STK295900 for 24 h. Treated cells were then stained with propidium iodide (PI) and processed for cell cycle analysis. The bar graph represents the mean percentage of each cell cycle phase ± SD from three independent experiments. * = p<0.05 versus the respective G1, S, or G2/M phase of DMSO-treated cells. (B) Mitotic index of STK295900. HeLa cells were treated with the indicated concentrations of STK295900 for 24 h. Cells were then stained with Hoechst 33342 and mitotic cells were counted. […] (C) Cell cycle related proteins expression. […] Treated cells were lysed and subjected to immunoblot analyses with antibodies against cyclin A, cyclin B1, phospho-Histone H3 (S10), and Histone H3. β-actin was used as a loading control.

human topoisomerase 2α = human topoisomerase 2α (Homo sapiens, UniProt P11388); assay: Supercoiled DNA relaxation assay for topoisomerase 2α; assay type: biochemical; conditions: pBR322, 37°C, 30 min
Sequence of human topoisomerase 2α (P11388 whole entry): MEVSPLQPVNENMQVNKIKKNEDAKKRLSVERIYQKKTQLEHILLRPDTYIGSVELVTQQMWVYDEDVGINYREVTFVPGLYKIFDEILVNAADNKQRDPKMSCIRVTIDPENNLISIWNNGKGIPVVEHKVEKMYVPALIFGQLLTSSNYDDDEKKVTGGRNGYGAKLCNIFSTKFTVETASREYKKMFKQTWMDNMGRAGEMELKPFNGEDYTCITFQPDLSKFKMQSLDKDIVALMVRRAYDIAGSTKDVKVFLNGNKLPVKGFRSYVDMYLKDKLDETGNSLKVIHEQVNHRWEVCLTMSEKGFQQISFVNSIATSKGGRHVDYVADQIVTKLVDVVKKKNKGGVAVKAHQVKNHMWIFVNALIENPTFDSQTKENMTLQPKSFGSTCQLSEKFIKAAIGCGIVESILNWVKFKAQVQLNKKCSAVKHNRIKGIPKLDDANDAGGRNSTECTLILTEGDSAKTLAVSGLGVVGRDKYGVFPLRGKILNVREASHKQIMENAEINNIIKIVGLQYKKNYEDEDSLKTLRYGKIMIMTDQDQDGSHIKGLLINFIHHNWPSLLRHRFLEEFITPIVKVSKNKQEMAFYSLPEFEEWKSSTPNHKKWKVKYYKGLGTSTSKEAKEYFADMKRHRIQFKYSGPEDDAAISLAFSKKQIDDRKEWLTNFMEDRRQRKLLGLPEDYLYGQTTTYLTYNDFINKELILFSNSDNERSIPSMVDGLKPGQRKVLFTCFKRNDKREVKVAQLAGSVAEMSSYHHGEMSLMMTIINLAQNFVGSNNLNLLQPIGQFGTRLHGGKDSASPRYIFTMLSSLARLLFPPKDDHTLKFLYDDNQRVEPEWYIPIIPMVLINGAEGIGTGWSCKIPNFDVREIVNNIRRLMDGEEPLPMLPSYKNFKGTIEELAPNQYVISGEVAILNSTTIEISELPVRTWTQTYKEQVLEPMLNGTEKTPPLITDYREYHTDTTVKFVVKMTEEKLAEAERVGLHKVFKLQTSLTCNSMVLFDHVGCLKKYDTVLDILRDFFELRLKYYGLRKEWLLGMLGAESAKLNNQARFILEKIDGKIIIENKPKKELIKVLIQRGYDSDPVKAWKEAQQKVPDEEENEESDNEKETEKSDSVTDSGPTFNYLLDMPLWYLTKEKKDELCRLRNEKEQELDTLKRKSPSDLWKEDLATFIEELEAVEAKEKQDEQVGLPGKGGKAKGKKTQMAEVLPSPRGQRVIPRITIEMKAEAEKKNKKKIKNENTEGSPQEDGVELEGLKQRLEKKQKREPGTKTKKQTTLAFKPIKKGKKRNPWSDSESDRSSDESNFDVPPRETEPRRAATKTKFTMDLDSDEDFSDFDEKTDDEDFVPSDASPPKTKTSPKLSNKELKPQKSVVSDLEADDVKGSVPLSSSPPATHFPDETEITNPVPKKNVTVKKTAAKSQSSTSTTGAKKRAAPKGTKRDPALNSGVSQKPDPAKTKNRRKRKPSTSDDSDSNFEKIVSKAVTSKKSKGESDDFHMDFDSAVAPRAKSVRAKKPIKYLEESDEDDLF
Experimental: After incubation, the reaction was terminated by addition of 2 µl of 10% SDS. The reaction mixtures were treated with 50 µg/ml proteinase K for 30 min at 37°C and then DNA was extracted with CIA (chloroform:isoamyl alcohol, 24∶1). Samples were resolved by electrophoresis on a 1% agarose gel. After staining the electrophoresed gel with ethidium bromide, DNA bands were visualized by UV light and photographed on Gel Doc XR.
(§3) Supercoiled DNA relaxation assay for (A) topoisomerase 1 (Top 1) and (B) topoisomerase 2 (Top 2). Supercoiled pBR322 plasmid DNA was incubated at 37°C for 30 min with Top 1 enzyme (A) or Top 2α (B) in the presence of various concentrations of indicated compounds. DNA samples were separated by electrophoresis on a 1% agarose gel, stained with ethidium bromide, and visualized by UV light. (−), supercoiled DNA alone; oc, open circular; sc, supercoiled. […] HeLa cells were pretreated with 10 µM of STK295900 for 30 min and then incubated with the indicated concentrations of camptothecin for 1 h. Treated cells were lysed and subjected to immunoblot analyses with antibody against γ-H2A.X. β-actin was used as a loading control. […] HeLa cells were pretreated with STK295900 at 10, 20, 30, or 50 µM or ICRF-193 at 10 µM for 30 min. […] Treated cells were then lysed and subjected to immunoblot analyses with antibody against γ-H2A.X. β-actin was used as a loading control.

HeLa cells [2] = assay: Antagonistic effect on Top poison-induced DNA damage (γ-H2A.X immunoblot); assay type: cell-based, human
Experimental: Cells were lysed with cold RIPA buffer (50 mM Tris-HCl pH 8.0, 150 mM NaCl, 1% NP-40, 0.5% sodium deoxycholate, 0.1% SDS) containing freshly added protease inhibitor, phosphatase inhibitor (SIGMA), 1 mM DTT, and 1 mM Na3VO4 on ice for 1 h. Whole cell lysates were centrifuged at 15,000 rpm for 20 min and then the supernatant was transferred into a new tube. An appropriate amount of cell lysate was subjected to SDS-PAGE. Then the resolved proteins were transferred onto a PVDF membrane (Bio-Rad) for immunoblot analyses with specific antibodies. The proteins were detected using chemiluminescence solution (Thermo Scientific, Rockford, IL).
as §3
The lysates were subjected to immunoblot analyses with γ-H2A.X antibody.

DNA gyrase = conditions: targeting DNA gyrase; cited from earlier work

Nc1ccc(-c2nc3ccc(-c4ccc5nc(-c6ccc(N)cc6)[nH]c5c4)cc3[nH]2)cc1 [STK295900, 4,4′-(3H,3′H-5,5′-bibenzimidazole-2,2′-diyl)dianiline]
IC50 (MCF7 cells; Table 1, MCF7, breast adenocarcinoma): 60 nM | IC50 (MCF7 cells; Table 2 comparison, MCF7): 40 nM | IC50 (MDA-MB-231 cells): 510 nM | IC50 (HepG2 cells; Table 1, HepG2, hepatocellular carcinoma): 170 nM | IC50 (HepG2 cells; Table 2 comparison, HepG2): 140 nM | IC50 (PC-3 cells): 2720 nM | IC50 (SNU-601 cells): 2210 nM | IC50 (hTERT RPE-1 cells): 3430 nM | G2/M population (HeLa cells [1]; 0.5 µM): about 35% | G2/M population (HeLa cells [1]; 1 µM): ~55% | G2/M population (HeLa cells [1]; 5 µM): ~65% | Top 2α-mediated DNA relaxation (human topoisomerase 2α): inhibited Top 2α-mediated DNA relaxation | effect of pretreatment on etoposide-induced γ-H2A.X (HeLa cells [2]; pretreated up to 50 µM for 30 min, then 10 µM etoposide 1 h): could not prevent | effect of pretreatment on camptothecin-induced γ-H2A.X (HeLa cells [2]; pretreated with 10 µM for 30 min, then camptothecin 1 h): dramatically reduced | anti-staphylococcal activity (DNA gyrase): potent anti-staphylococcal agent
